According to US20250275940A1, “PTEROSTILBENE AND SILIBININ FOR PREVENTING, AMELIORATING OR REDUCING RADIATION-INDUCED DISEASES” (UNIVERSITAT DE VALÈNCIA, priority 2021, published 2025):

Tests used:
[1] = test system: Swiss albino mice subjected to whole-body γ irradiation; assay: Survival of mice subjected to whole-body γ irradiation (LD50/30); format: in vivo
Source text: Swiss albino mice (male, 9-10 weeks old, 30-32 g) were obtained from Charles River Laboratories (Wilmington, MA). This strain is among the most common used in radiation studies (Williams 2010). Mice were fed with a nutritionally complete diet (standard diet, SD) before irradiation. This was A03 from Panlab (Barcelona, Spain), which has 3,200 kcal/kg and the following nutritional composition: crude protein, 23.5%; crude fat, 4.3%; crude fiber, 3.7%; and carbohydrates, 51.1%; vitamins and minerals were provided as in the NIH-7 open formula for rat and mouse. This diet meets the dietary allowances recommended for adult mice by the American Institute of Nutrition. The animals were fed ad libitum and kept in individual metabolic cages, in which body weight and food ingestion were monitored daily. The animal room was maintained at 22° C. on a 12 h light/12 h dark cycle. Ad libitum intake of drinking water was also allowed. Care of irradiated mice followed the recommendation of the Robert Wood Johnson Medical School (Piscataway, NJ) for mouse total body irradiation (policy 15), which includes: a) use of antibiotics in the drinking water (134 mg ampicillin/kg/day, 40 mg baytril/kg/day, and 220/42 mg sulfamethoxazole/trimethoprim/kg/day), b) making drinking water readily available, c) Napa nectar Systems Engineering Lab Group Inc., Napa, CA) provided on the bottom of the cage during the first 14 days and replaced daily, d) provision of softened food served in a small Petri dish on the cage floor, e) completely sterile environment (cage, food, and water) to avoid potential immunosuppression-associated infections. A free-standing wheel inside the cage was also included to facilitate the physical exercise of the animals. All experiments were started at 10.00 h to minimize possible circadian variations. Procedures involving animals were in compliance with international laws and policies (EEC Directive 86/609, OJ L 358. 1, Dec. 12, 1987; and NIH Guide for the Care and Use of Laboratory Animals, NIH Publ. No. 85-23, 1985). Mice were subjected to g-radiation (^137Cs) (total body irradiation, TBI) in a BIOBEAM 8000 (Gamma-Service Medical GmbH, Leipzig, Germany). Single fraction radiotherapy, at total doses ranging from approx. 5.0 to 10.0 Gy, was administered at a rate of approx. […]. The irradiation distance from the source was limited to 12 cm. Radiation dosimetry was controlled using alanine dosimeters from Bruker (Billerica, MA) with dosimetry variation of +/−0.09 Gy. […] NR (nicotinamide riboside, 3-aminocarbonyl-1-b-D-ribofuranosyl-pyridinium, Elysium Health, Inc., New York, NY) was dissolved in vaccination-grade water, and the pH of the solution neutralized (pH 7.0) before oral administration (185 mg/kg×day, Obrador 2020). FSL-1 (InvivoGen, San Diego, CA) was resuspended in sterile vaccination-grade water, and administered IP (0.25 mg/kg×day, the volume administered was of […] depending on the weight of the mouse, as recommended by Kurkjian 2017). Pharmaceutical grade amifostine (Ethyol) was obtained from Cumberland Pharmaceuticals (Nashville, TN) as 500 mg sterile lyophilized powder vial, and reconstituted with physiological saline prior to use.
First, the effects of γ radiation and mice survival were studied. […] Mice received whole-body γ radiation (one single dose; ^137Cs, 0.5-0.6 Gy/min; Biobeam 8000, GSM GmbH). One Gy=absorption of 1 J of energy/kg of matter.
Next, the thirty-days survival of mice treated with γ rays (LD50/30) and pterostilbene (PT) was analysed (FIG. 1B).

cellular NAD+ content = assay: NAD+ content of cells isolated from mice; format: in vivo; conditions: FIG. 14a
Procedure: (§1) FIG. 14. […] Cells were isolated 72 h after irradiation. […] Mice were treated and cells isolated as above (a).
Isolated cells were homogenized in 0.1M phosphate buffer (pH 7.2) at 4° C. γ-glu tamylcysteine ligase (GCL), glutathione peroxidase (GPX), catalase (CAT), and superoxide dismutase 1 and 2 (SOD1 and SOD2) activities were measured as previously described in detail (Benlloch 2016). Protein concentration was determined with the Pierce BCA protein assay (Thermo Fisher Scientific). Glutathione ([…]-L-glutamyl-L-cystenyl-glycine, GSH) was determined by LC/MS as previously reported (Obrador 2014). Cell processing was performed according to published methodology, where rapid N-ethylmaleimide derivatization was used to prevent GSH auto-oxidation (Asensi 1994). NAD^+ and NADH in isolated cells were quantitated using assay kits from MyBiosource (San Diego, CA).
Presumably, the effect of the polyphenols is an antioxidant-related mechanism, whereas the NR-induced increase in NAD+ directly promotes the DNA repair activity.

[2] = target: nicotinamide phosphoribosyltransferase (NAMPT) (Mus musculus, UniProt Q99KQ4); conditions: mice treated with FK866 for 6 days, FIG. 14b
Procedure: FK866 was administered in vivo (15 mg/kg, twice daily by intraperitoneal injection, during 6 days and starting 3 days prior to irradiation, see FIG. 11a), and was also present in the cell cultures (100 nM). Cells were isolated 72 h after irradiation. […] Mice were treated with the inhibitor for 6 days as above (a).
Formation of 14C-nicotinamide mononucleotide (NMN) from 14C-nicotinamide (NAM, (GE Healthcare Life Sciences, Björkgatan, Uppsala, Sweden) can be measured by precipitation of 14C-NMN in acetone on filter paper and scintillation counting. Cell dispersion was carried out by trypsinization (in Mg^2+- and Ca2^+-free PBS supplemented with 0.2% trypsin, 0.5 mM EDTA, and 5 mM glucose for 3 min at 37° C.). Cell pellets were obtained by centrifugation (800 g×5 min at 4° C.), and then 100 μl of phosphate buffer [0.01 M Na2HPO4/NaH2PO4 buffer, pH 7.4, containing protease inhibitor (Sigma-Aldrich)] was added to each cell sample. Samples were further processed, and NAMPT activity was determined on 30 μg of protein as described previously (Elliott G C, et al. 1980, and Schuster S, et al. 2014). Radioactivity (disintegrations/min) was measured using a Tri-Carb® Liquid Scintillation Counter from Perkin-Elmer. Background disintegrations/min from scintillation fluid was subtracted from each measurement.

cellular DNA damage = assay: Comet assay of DNA damage in cells isolated from γ-irradiated mice; format: in vivo; conditions: FIG. 14c
Procedure: as §1
This assay is a single cell gel electrophoresis assay for simple evaluation of cellular DNA damage. We used the assay kit from Abcam (ab238544) (Cambridge, UK). The manufacturer's instructions were followed step by step.

[3] = PT, SIL and NAD+ levels in circulating blood; conditions: treated and irradiated mice, FIG. 10B
Procedure: Briefly, samples were analyzed through HPLC (Ultimate 3000, Thermo Fisher Scientific) and MS/MS (Waters TQ detector triple quadrupole) systems on a Hypurity™ C18 column (50×4.6 mm) using an injection volume of 5 μL. The mobile phases consisted of water (A) and acetonitrile (B). […] MS/MS data acquisition was performed under negative electrospray ionization mode. […] The fragmentary voltage was 150 V, and the collision energy 15 eV. Tissue sample preparation was as described for determination of PTER levels (above).
Whole-blood samples (0.5 ml) were collected in sodium citrate tubes at 4° C. Then a whole-blood aliquot of 0.1 ml was transferred to a cryovial containing 0.9 ml of 0.5 M ice-cold perchloric acid to lyse all blood cells. Samples were centrifuged at 10,000 g×10 min (4° C.). Supernatants were stored at −80° C. until analyzed.

[4] = test system: hematopoietic colony forming cells CFU-GM and CFU-GEMM; assay: Colony forming cells in the bone marrow; format: in vivo; conditions: femurs of γ-irradiated mice, 7 days after irradiation, FIG. 14d
Procedure: as §1
Mice were sacrificed under aseptic conditions and femurs were isolated on day 7 post irradiation. Bone marrow cells were flushed from the isolated femurs (see above) with phosphate-buffered saline (4° C.) supplemented with 5% fetal bovine serum. Single-cell suspension was passed through 100 μm nylon mesh strainer to remove debris and clumps. Cells were washed twice with phosphate-buffered saline (4° C.) and counted using a hemocytometer. Cells were plated ex vivo at a concentration of 5×10^4 cells per 35 mm cell culture dish in Methocult GF M3434 (Stemcell Technologies, Vancouver, Canada) growth medium according to the manufacturer's protocol and incubated for 14 days at 37° C., 5% CO2, 95% humidity. Colonies were visualized on day 14 of culture using light microscopy (AxioCam MRc5, Zeiss, Oberkochen, Germany) under a polarised light and scanned in a 60 mm gridded scoring Petri dish (Stemcell Technologies). Hematopoietic colony forming cells CFU-GM and CFU-GEMM were quantified.

[5] = 60 days after γ radiation (LD50/30), compounds administered orally, FIG. 2C
[6] = 6 days after γ radiation (LD50/30), compounds administered orally, FIG. 2A
[7] = 60 days post γ irradiation (LD50/30), NR oral 185 mg/kg×day for 30 days after irradiation, FSL-1 IP 0.25 mg/kg once 24 h after, FIG. 9

Chain of nicotinamide phosphoribosyltransferase (NAMPT) (Q99KQ4 whole entry): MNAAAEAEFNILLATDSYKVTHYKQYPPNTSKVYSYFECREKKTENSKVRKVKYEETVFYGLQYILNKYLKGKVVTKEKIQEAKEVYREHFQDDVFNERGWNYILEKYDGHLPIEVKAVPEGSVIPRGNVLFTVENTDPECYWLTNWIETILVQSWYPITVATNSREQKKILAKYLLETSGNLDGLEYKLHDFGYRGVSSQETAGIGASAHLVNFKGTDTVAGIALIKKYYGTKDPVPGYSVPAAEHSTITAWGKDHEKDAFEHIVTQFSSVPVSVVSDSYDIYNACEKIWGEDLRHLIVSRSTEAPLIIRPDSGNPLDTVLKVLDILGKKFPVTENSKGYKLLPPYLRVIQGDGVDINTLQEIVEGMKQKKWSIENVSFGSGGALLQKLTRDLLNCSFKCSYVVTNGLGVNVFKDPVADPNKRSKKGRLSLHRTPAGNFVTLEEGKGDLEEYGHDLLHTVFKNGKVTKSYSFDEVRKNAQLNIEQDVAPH

Question: For `O=c1c(-c2ccc(O)cc2)coc2cc(O)cc(O)c12` [Genistein, genistein], which survival [1, 5] is on record?
Answer: around 7%

Question: Which results are given for `O=C(/C=C/c1cccnc1)NCCCCC1CCN(C(=O)c2ccccc2)CC1` [FK866, reference compound]?
Answer: NAD+ levels in mice treated with PT+SIL+NR or PT+SIL+NR+γ rays (cellular NAD+ content; FK866 15 mg/kg twice daily IP 6 days and 100 nM in cell cultures): decreased; NAMPT activity [2]: drastic decrease

Question: Which “radioprotective effects compared with PT” value ([1]; orally once per day, 5 days before and 2 days after γ irradiation (7.2 Gy), FIG. 1C) does the source give for `Oc1ccc(C=Cc2cc(O)cc(O)c2)cc1` [Resv, resveratrol] here?
Answer: lower than those of PT

Question: For `O=C(O)c1cc(O)c(O)c(O)c1` [Gallic acid, gallic acid], which survival [1, 6] is on record?
Answer: around 100%

Question: And the survival [1, 5]?
Answer: around 5%

Question: For `O=c1cc(-c2ccc(O)c(O)c2)oc2cc(O)cc(O)c12` [Luteolin, luteolin], which survival [1, 5] is on record?
Answer: 0%

Question: What about the “percentage of survival reduced in” value ([1]; after 30 days, γ radiation (LD50/30), oral, FIG. 2B) of the same molecule?
Answer: about 40%

Question: Which survival [1, 7] does the source give for `NC(=O)c1ccc[n+]([C@@H]2O[C@H](CO)[C@@H](O)[C@H]2O)c1` [NR, 3-aminocarbonyl-1-b-D-ribofuranosyl-pyridinium] here?
Answer: 0%

Question: What about the “decrease of NAD+ induced by γ radiation” value (cellular NAD+ content; cells isolated 72 h after irradiation) of the same molecule?
Answer: prevents

Question: And the “NAD+ content in different cell types” value (cellular NAD+ content; cells isolated from treated mice)?
Answer: increases

Question: What about the “DNA recovery (DNA damage COMET assay)” value (cellular DNA damage) of the same molecule?
Answer: favored DNA recovery

Question: Which survival [1, 5] does the source give for `O=c1c(O)c(-c2ccc(O)c(O)c2)oc2cc(O)cc(O)c12` [Quercetin, quercetin] here?
Answer: 0%

Question: Which survival [1, 5] does the source give for `O=C(CCc1ccc(O)cc1)c1c(O)cc(O)cc1O[C@@H]1O[C@H](CO)[C@@H](O)[C@H](O)[C@H]1O` [Phloridzin, phloridzin] here?
Answer: 0%

Question: With `COc1cc([C@@H]2Oc3cc(C4Oc5cc(O)cc(O)c5C(=O)[C@H]4O)ccc3O[C@H]2CO)ccc1O` (stereo in doubt) [SIL, 3,5,7-trihydroxy-2-[3-(4-hydroxy-3-methoxyphenyl)-2-(hydroxymethyl)-2,3-dihydro-1,4-benzodioxin-6-yl]-2,3-dihydrochromen-4-one] as the molecule, how does the survival [1, 5] read?
Answer: around 10%

Question: What about the “SIL levels in circulating blood, 30 min vs 120 min” value [3] of the same molecule?
Answer: higher 30 min after

Question: What does the source list for FSL-1?
Answer: survival [1, 7]: 5%; hematopoietic colony forming cells CFU-GEMM [4]: increases; hematopoietic colony forming cells CFU-GM [4]: increases

Question: Which survival [1, 5] does the source give for `Oc1cc(O)c2cc(O)c(-c3cc(O)c(O)c(O)c3)[o+]c2c1` [Delphinidin] here?
Answer: around 12%

Question: With `O=C(O[C@@H]1Cc2c(O)cc(O)cc2O[C@@H]1c1cc(O)c(O)c(O)c1)c1cc(O)c(O)c(O)c1` [EGCG, epigallocatechin gallate] as the molecule, how does the survival [1, 6] read?
Answer: around 100%

Question: What about the survival [1, 5] of the same molecule?
Answer: 0%

Question: Which survival [1, 5] does the source give for `O=C1C[C@@H](c2ccc(O)cc2)Oc2cc(O)cc(O)c21` [Naringerin, naringenin] here?
Answer: 0%
